Measured values as given in patent publication US10058495B2, “Method of making a skin care product” (The Procter & Gamble Company, priority 2014, dated 2018).
Residues, ends and D or L forms follow the SMILES beside them. *: point of attachment. Palmitoyl = CCCCCCCCCCCCCCCC(=O)*

Test: In vivo skin penetration study #1 (Tape Stripping method), magnetic array vs finger
Parameters: species or system human
Settings: for combined amount of Pal-KTTKS on tape strips, Mean: mean of the three strip groups; for combined amount of Pal-KTTKS on tape strips, Mean / combined amount of Pal-KTTKS on tape strips: in ng; for delivery of Pal-KTTKS, active compared to passive application: three test subjects
Procedure: An in vivo skin penetration study was conducted to establish the effect of using a skin care product of the present invention by applying a skin care composition comprising Pal-KTTKS (SEQ ID NO: 1) with an applicator comprising a magnetic array. The study compared the penetration of the Pal-KTTKS (SEQ ID NO: 1) in combination with a variety of magnetic arrays (active application) to the penetration of Pal-KTTKS (SEQ ID NO: 1) applied with a finger (passive application). Penetration of Pal-KTTKS (SEQ ID NO: 1) in this example is determined according to the Tape Stripping method. In this example, the level of Pal-KTTKS (SEQ ID NO: 1) present in the extract from each tape strip was measured using HPLC and the results normalized to the protein level measured on the tape strip.
This method provides a suitable means of measuring the amount of skin care active present in skin, and comparing active versus passive application of the skin care active. Two identical rectangular areas of 15 cm^2 are marked on the volar forearms of volunteers. A measured dose (approximately 30 mg) of the Pal-KTTKS (SEQ ID NO: 1) formulation is applied to the delineated areas using a screw actuated syringe. Active application is carried out on one of the delineated areas using the three-quarter profile of a purpose made applicator (e.g., an applicator presenting one of the magnetic arrays set forth in Table 2). Passive application is accomplished on the other delineated area using the tip of a finger in a sweeping motion identical to that of the active application. The formulation is spread evenly across the entire delineated region using a sweeping motion with a fixed speed of approximately 23 cm/s to […]. The application period is 30 seconds during which time visual inspection is used to ensure even distribution and absorption of the formulation by skin. The application area is then left uncovered for a further 30 minutes to ensure complete absorption. Tape strip samples may be collected and/or analyzed immediately after the complete absorption is ensured or after a waiting period (e.g., after multiple applications of the formulation over multiple hours or days).
The tape stripping procedure is carried out using 10 commercial pre-cut 22.1 mm tape stripping adhesive discs (e.g., D-SQUAME, available from Cuderm Corporation or equivalent) with an adhesive area of 3.8 cm^2. The 10 tape strips are applied sequentially to the same sampling site, which ideally enables each tape strip to obtain a sample from deeper within the stratum corneum than the tape strip that preceded it. A 22.1 mm diameter circular region is marked at the center of the application area. A tape stripping adhesive disc is placed over the marked area and even pressure applied using, for example, a neoprene roller, rolled ten times over the adhesive disc. The adhesive disc is removed from the skin surface in a single pulling motion using manual tweezers. To ensure even removal of the skin sample, subsequent discs are removed in a “north, south, east and west” orientation, which is within the skill of the ordinary artisan. Each adhesive disc is non-destructively analysed for protein content using a suitable instrument (e.g., SquameScan™ 850 instrument commercially available from Heiland Electronics Wetzlar, Germany, or equivalent). The adhesive disc is then immediately placed into a glass vial containing extraction solvent in preparation for subsequent analysis. Solvent extractions are conducted on each tape strip using conventional extraction methods, which are well known to those of ordinary skill in the art, and measuring the amount of Pal-KTTKS (SEQ ID NO: 1) present in the extract, for example, by high performance liquid chromatography (“HPLC”) and/or mass spectrometry.
The procedure is repeated for the remaining nine strips. An additional strip is obtained from outside the area of application of the skin care formulation to serve as a blank sample. […]

CCCCCCCCCCCCCCCC(=O)N[C@@H](CCCCN)C(=O)N[C@H](C(=O)N[C@H](C(=O)N[C@@H](CCCCN)C(=O)N[C@@H](CO)C(=O)O)[C@@H](C)O)[C@@H](C)O [Pal-KTTKS, palmitoyl-lysine-threonine-threonine-lysine-serine] (Palmitoyl-KTTKS-OH; C-terminus assumed)
combined amount of Pal-KTTKS on tape strips, Mean (array 4, active, Average): 102.11
combined amount of Pal-KTTKS on tape strips, Mean (array 4, active, subject 1, 1st test): 144.79
combined amount of Pal-KTTKS on tape strips, Mean (array 4, active, subject 1, 2nd test): 96.97
combined amount of Pal-KTTKS on tape strips, Mean (array 4, active, subject 2, 1st test): 122.02
combined amount of Pal-KTTKS on tape strips, Mean (array 4, active, subject 2, 2nd test): 78.21
combined amount of Pal-KTTKS on tape strips, Mean (array 4, active, subject 3 (2nd test of Table 7)): 68.57
combined amount of Pal-KTTKS on tape strips (array 4, active, strips 2-4, Average): 108.81
combined amount of Pal-KTTKS on tape strips (array 4, active, strips 2-4, subject 1, 1st test): 158.48
combined amount of Pal-KTTKS on tape strips (array 4, active, strips 2-4, subject 1, 2nd test): 82.45
combined amount of Pal-KTTKS on tape strips (array 4, active, strips 2-4, subject 2, 1st test): 129.33
combined amount of Pal-KTTKS on tape strips (array 4, active, strips 2-4, subject 2, 2nd test): 94.10
combined amount of Pal-KTTKS on tape strips (array 4, active, strips 2-4, subject 3 (2nd test of Table 7)): 79.66
combined amount of Pal-KTTKS on tape strips (array 4, active, strips 5-7, Average): 107.95
combined amount of Pal-KTTKS on tape strips (array 4, active, strips 5-7, subject 1, 1st test): 154.85
combined amount of Pal-KTTKS on tape strips (array 4, active, strips 5-7, subject 1, 2nd test): 117.42
combined amount of Pal-KTTKS on tape strips (array 4, active, strips 5-7, subject 2, 1st test): 121.51
combined amount of Pal-KTTKS on tape strips (array 4, active, strips 5-7, subject 2, 2nd test): 73.41
combined amount of Pal-KTTKS on tape strips (array 4, active, strips 5-7, subject 3 (2nd test of Table 7)): 72.59
combined amount of Pal-KTTKS on tape strips (array 4, active, strips 8-10, Average): 89.57
combined amount of Pal-KTTKS on tape strips (array 4, active, strips 8-10, subject 1, 1st test): 121.04
combined amount of Pal-KTTKS on tape strips (array 4, active, strips 8-10, subject 1, 2nd test): 91.03
combined amount of Pal-KTTKS on tape strips (array 4, active, strips 8-10, subject 2, 1st test): 115.22
combined amount of Pal-KTTKS on tape strips (array 4, active, strips 8-10, subject 2, 2nd test): 67.12
combined amount of Pal-KTTKS on tape strips (array 4, active, strips 8-10, subject 3 (2nd test of Table 7)): 53.45
combined amount of Pal-KTTKS on tape strips, Mean (array 9, active, average of subjects): 165.57
combined amount of Pal-KTTKS on tape strips, Mean (array 9, active, subject 1): 154.29
combined amount of Pal-KTTKS on tape strips, Mean (array 9, active, subject 2): 201.48
combined amount of Pal-KTTKS on tape strips, Mean (array 9, active, subject 3): 140.93
combined amount of Pal-KTTKS on tape strips (array 9, active, strips 2-4, average of subjects): 263.02
combined amount of Pal-KTTKS on tape strips (array 9, active, strips 2-4, subject 1): 177.13
combined amount of Pal-KTTKS on tape strips (array 9, active, strips 2-4, subject 2): 440.14
combined amount of Pal-KTTKS on tape strips (array 9, active, strips 2-4, subject 3): 171.79
combined amount of Pal-KTTKS on tape strips (array 9, active, strips 5-7, average of subjects): 120.01
combined amount of Pal-KTTKS on tape strips (array 9, active, strips 5-7, subject 1): 131.72
combined amount of Pal-KTTKS on tape strips (array 9, active, strips 5-7, subject 2): 100.02
combined amount of Pal-KTTKS on tape strips (array 9, active, strips 5-7, subject 3): 128.29
combined amount of Pal-KTTKS on tape strips (array 9, active, strips 8-10, average of subjects): 113.67
combined amount of Pal-KTTKS on tape strips (array 9, active, strips 8-10, subject 1): 154.03
combined amount of Pal-KTTKS on tape strips (array 9, active, strips 8-10, subject 2): 64.27
combined amount of Pal-KTTKS on tape strips (array 9, active, strips 8-10, subject 3): 122.70
delivery of Pal-KTTKS, active compared to passive application (bi-directional magnetic array #9): significant enhanced delivery
combined amount of Pal-KTTKS on tape strips, Mean (passive, comparator of array 4, Average): 50.00
combined amount of Pal-KTTKS on tape strips, Mean (passive, comparator of array 4, subject 1, 1st test): 59.18
combined amount of Pal-KTTKS on tape strips, Mean (passive, comparator of array 4, subject 1, 2nd test): 42.29
combined amount of Pal-KTTKS on tape strips, Mean (passive, comparator of array 4, subject 2, 1st test): 52.85
combined amount of Pal-KTTKS on tape strips, Mean (passive, comparator of array 4, subject 2, 2nd test): 23.30
combined amount of Pal-KTTKS on tape strips, Mean (passive, comparator of array 4, subject 3 (2nd test of Table 8)): 72.39
combined amount of Pal-KTTKS on tape strips (passive, comparator of array 4, strips 2-4, Average): 70.42
combined amount of Pal-KTTKS on tape strips (passive, comparator of array 4, strips 2-4, subject 1, 1st test): 79.94
combined amount of Pal-KTTKS on tape strips (passive, comparator of array 4, strips 2-4, subject 1, 2nd test): 69.89
combined amount of Pal-KTTKS on tape strips (passive, comparator of array 4, strips 2-4, subject 2, 1st test): 86.09
combined amount of Pal-KTTKS on tape strips (passive, comparator of array 4, strips 2-4, subject 2, 2nd test): 28.02
combined amount of Pal-KTTKS on tape strips (passive, comparator of array 4, strips 2-4, subject 3 (2nd test of Table 8)): 88.18
combined amount of Pal-KTTKS on tape strips (passive, comparator of array 4, strips 5-7, Average): 49.50
combined amount of Pal-KTTKS on tape strips (passive, comparator of array 4, strips 5-7, subject 1, 1st test): 65.58
combined amount of Pal-KTTKS on tape strips (passive, comparator of array 4, strips 5-7, subject 1, 2nd test): 35.35
combined amount of Pal-KTTKS on tape strips (passive, comparator of array 4, strips 5-7, subject 2, 1st test): 46.95
combined amount of Pal-KTTKS on tape strips (passive, comparator of array 4, strips 5-7, subject 2, 2nd test): 23.11
combined amount of Pal-KTTKS on tape strips (passive, comparator of array 4, strips 5-7, subject 3 (2nd test of Table 8)): 76.52
combined amount of Pal-KTTKS on tape strips (passive, comparator of array 4, strips 8-10, Average): 30.08
combined amount of Pal-KTTKS on tape strips (passive, comparator of array 4, strips 8-10, subject 1, 1st test): 32.01
combined amount of Pal-KTTKS on tape strips (passive, comparator of array 4, strips 8-10, subject 1, 2nd test): 21.64
combined amount of Pal-KTTKS on tape strips (passive, comparator of array 4, strips 8-10, subject 2, 1st test): 25.51
combined amount of Pal-KTTKS on tape strips (passive, comparator of array 4, strips 8-10, subject 2, 2nd test): 18.76
combined amount of Pal-KTTKS on tape strips (passive, comparator of array 4, strips 8-10, subject 3 (2nd test of Table 8)): 52.45
combined amount of Pal-KTTKS on tape strips, Mean (passive, comparator of array 9, average of subjects): 47.80
combined amount of Pal-KTTKS on tape strips, Mean (passive, comparator of array 9, subject 1): 42.29
combined amount of Pal-KTTKS on tape strips, Mean (passive, comparator of array 9, subject 2): 28.71
combined amount of Pal-KTTKS on tape strips, Mean (passive, comparator of array 9, subject 3): 72.39
combined amount of Pal-KTTKS on tape strips (passive, comparator of array 9, strips 2-4, average of subjects): 62.79
combined amount of Pal-KTTKS on tape strips (passive, comparator of array 9, strips 2-4, subject 1): 69.89
combined amount of Pal-KTTKS on tape strips (passive, comparator of array 9, strips 2-4, subject 2): 30.29
combined amount of Pal-KTTKS on tape strips (passive, comparator of array 9, strips 2-4, subject 3): 88.18
combined amount of Pal-KTTKS on tape strips (passive, comparator of array 9, strips 5-7, average of subjects): 50.50
combined amount of Pal-KTTKS on tape strips (passive, comparator of array 9, strips 5-7, subject 1): 35.35
combined amount of Pal-KTTKS on tape strips (passive, comparator of array 9, strips 5-7, subject 2): 39.62
combined amount of Pal-KTTKS on tape strips (passive, comparator of array 9, strips 5-7, subject 3): 76.52
combined amount of Pal-KTTKS on tape strips (passive, comparator of array 9, strips 8-10, average of subjects): 30.11
combined amount of Pal-KTTKS on tape strips (passive, comparator of array 9, strips 8-10, subject 1): 21.64
combined amount of Pal-KTTKS on tape strips (passive, comparator of array 9, strips 8-10, subject 2): 16.23
combined amount of Pal-KTTKS on tape strips (passive, comparator of array 9, strips 8-10, subject 3): 52.45
delivery of Pal-KTTKS, active compared to passive application (uni-directional magnetic array #4): significant enhanced delivery
